Key:
Acanthamoeba polyphaga [1] = test: Adhesion test: Acanthamoeba adhered to polypropylene test pieces after 60 min immersion; type: cell-based
Experimental: (§1) An Acanthamoeba solution containing 1×10^5 Acanthamoeba per mL of solution was prepared by dispersing Acanthamoeba (Acanthamoeba polyphaga, obtained from American Type Culture Collection (ATCC), 30872™) in phosphate-buffered saline as solvent.
(§2) The polypropylene test pieces used in the adhesion test described below were polypropylene from Johoku Co., Ltd., product number: PP_A3, cut to dimensions of 15 mm length×15 mm width×0.25 mm thickness from original dimensions of 320 mm length×440 mm width×0.25 mm thickness for each experiment.
(§3) To verify the anti-adhesive properties and antiprotozoal activity of the lysozyme-chitosan complex (LYZOX (registered trademark)), adhesion tests and cell death tests were conducted.
(§4) Specifically, the above-mentioned Acanthamoeba solution was added to the above-mentioned lysozyme-chitosan complex (LYZOX (registered trademark)) solution to prepare mixed solutions containing 0.1 μg, 1 μg, 10 μg, 100 μg, and 1000 μg of lysozyme-chitosan complex per 1 mL of mixed solution. Separately, a control solution with 0 μg/mL concentration containing no lysozyme-chitosan complex was prepared. The same sterilized water used in preparing the lysozyme-chitosan complex was used as dilution liquid for concentration adjustment. All six solutions contained 1×10^5 Acanthamoeba per 1 mL of solution.
(§5) The above-mentioned polypropylene test pieces were immersed in the prepared mixed solutions and left standing; after 60 minutes of immersion, the test pieces were removed from the mixed solutions, washed with phosphate-buffered saline (PBS, obtained from FUJIFILM Wako Pure Chemical Corporation, product number: 166-23555), and dried. The surface of the obtained test pieces was observed under a biological microscope (obtained from Nikon, product number: ECLIPSE E-200), and Acanthamoeba adhered within a 5×5 mm observation area on the test piece surface were counted. Subsequently, trypan blue was applied to the observation area, staining dead Acanthamoeba, and the number of dead Acanthamoeba was counted.
(§6) Acanthamoeba were counted and the total number of adhered Acanthamoeba, number of dead Acanthamoeba, and Acanthamoeba mortality rate were measured in the same manner as Experimental Example 1, except that the mixture solution of lysozyme and chitosan (Table 2), lysozyme alone (Table 3), and chitosan alone (Table 4) described above were used instead of the lysozyme-chitosan complex (LYZOX (registered trademark)) solution of Experimental Example 1.

Acanthamoeba polyphaga [2] = test: Cell death test: trypan blue staining of adhered Acanthamoeba; type: cell-based; conditions: for Acanthamoeba inhibition effects (antiprotozoal effects): in words, compared with complex at 100 μg/mL and 1000 μg/mL; for Acanthamoeba mortality rate: 60 min immersion, 1×10^5 Acanthamoeba/mL
Experimental: as §1, §2, §3, §4, §5, §6

## Lysozyme: egg white lysozyme with molecular weight of approximately 14300 (Biocon (Japan) Ltd.)
Acanthamoeba polyphaga [1]; 0.05 μg/mL, 1×10^5 Acanthamoeba/mL
  Total number of adhered Acanthamoeba: 119 count/mm^2
Acanthamoeba polyphaga [1]; 0.5 μg/mL, 1×10^5 Acanthamoeba/mL
  Total number of adhered Acanthamoeba: 94.2 count/mm^2
Acanthamoeba polyphaga [1]; 5 μg/mL, 1×10^5 Acanthamoeba/mL
  Total number of adhered Acanthamoeba: 87.2 count/mm^2
Acanthamoeba polyphaga [1]; 50 μg/mL, 1×10^5 Acanthamoeba/mL
  Total number of adhered Acanthamoeba: 67.8 count/mm^2
Acanthamoeba polyphaga [1]; 500 μg/mL, 1×10^5 Acanthamoeba/mL
  Total number of adhered Acanthamoeba: 42.1 count/mm^2
Acanthamoeba polyphaga [2]
  Acanthamoeba inhibition effects (antiprotozoal effects): incomplete

## poly-β1→4-glucosamine [Chitosan]
Acanthamoeba polyphaga [1]; 0.05 μg/mL, 1×10^5 Acanthamoeba/mL (Table 4)
  Total number of adhered Acanthamoeba: 108 count/mm2
Acanthamoeba polyphaga [1]; 0.5 μg/mL, 1×10^5 Acanthamoeba/mL (Table 4)
  Total number of adhered Acanthamoeba: 89.2 count/mm2
Acanthamoeba polyphaga [1]; 5 μg/mL, 1×10^5 Acanthamoeba/mL (Table 4)
  Total number of adhered Acanthamoeba: 82.1 count/mm2
Acanthamoeba polyphaga [1]; 50 μg/mL, 1×10^5 Acanthamoeba/mL (Table 4)
  Total number of adhered Acanthamoeba: 65.3 count/mm2
Acanthamoeba polyphaga [1]; 500 μg/mL, 1×10^5 Acanthamoeba/mL (Table 4)
  Total number of adhered Acanthamoeba: 49.7 count/mm2
Acanthamoeba polyphaga [2]; 0.05 μg/mL
  Acanthamoeba mortality rate: 3.5%
Acanthamoeba polyphaga [2]; 0.5 μg/mL
  Acanthamoeba mortality rate: 3.8%
Acanthamoeba polyphaga [2]; 5 μg/mL
  Acanthamoeba mortality rate: 3.9%
Acanthamoeba polyphaga [2]; 50 μg/mL
  Acanthamoeba mortality rate: 7.9%
Acanthamoeba polyphaga [2]; 500 μg/mL
  Acanthamoeba mortality rate: 37.4%
Acanthamoeba polyphaga [2]
  Acanthamoeba inhibition effects (antiprotozoal effects): incomplete
